In ChEMBL document CHEMBL1144048, “Facile preparation of new 4-phenylamino-3-quinolinecarbonitrile Src kinase inhibitors via 7-fluoro intermediates: identification of potent 7-amino analogs” (Bioorg Med Chem, 2008):
Values after ≈ are worked out from the molar mass of the structure shown.

What was measured:
[1] = Inhibition of human cSrc-vSrc fusion protein expressed in rat fibroblast cells by ELISA; format: cell-based
CYP2C9 = CYP2C9 (Homo sapiens, UniProt P11712); experiment: Inhibition of CYP2C9 at 3 uM; format: ADME
[2] = Drug level in nude mouse plasma at 50 mg/kg, po after 24 hrs; format: ADME, organism-based; parameters: dose 50 mg/kg, route oral
[3] = Drug level in nude mouse plasma at 50 mg/kg, po after 8 hrs; format: ADME, organism-based; parameters: dose 50 mg/kg, route oral
[4] = Drug level in nude mouse plasma at 50 mg/kg, po after 4 hrs; format: ADME, organism-based; parameters: dose 50 mg/kg, route oral
HT-29 = experiment: Inhibition of tumor growth in human HT29 cells xenografted nude mouse at 150 mg/kg, po OD after 14 days relative to control; format: functional; details: HT-29, 336 h
CYP3A4 = CYP3A4 (Homo sapiens, UniProt P08684); experiment: Inhibition of CYP3A4 at 3 uM; format: ADME
[5] = Permeability across artificial membrane by PAMPA; format: ADME; details: read-out: permeability
[6] = Solubility at pH 7.4; format: physicochemical; details: buffer
CYP2D6 = CYP2D6 (Homo sapiens, UniProt P10635); experiment: Inhibition of CYP2D6 at 3 uM; format: ADME
[7] = Stability in mouse plasma after 300 mins; format: ADME, cell-free; details: read-out: Stability

Sequence of CYP2C9 (P11712 whole entry): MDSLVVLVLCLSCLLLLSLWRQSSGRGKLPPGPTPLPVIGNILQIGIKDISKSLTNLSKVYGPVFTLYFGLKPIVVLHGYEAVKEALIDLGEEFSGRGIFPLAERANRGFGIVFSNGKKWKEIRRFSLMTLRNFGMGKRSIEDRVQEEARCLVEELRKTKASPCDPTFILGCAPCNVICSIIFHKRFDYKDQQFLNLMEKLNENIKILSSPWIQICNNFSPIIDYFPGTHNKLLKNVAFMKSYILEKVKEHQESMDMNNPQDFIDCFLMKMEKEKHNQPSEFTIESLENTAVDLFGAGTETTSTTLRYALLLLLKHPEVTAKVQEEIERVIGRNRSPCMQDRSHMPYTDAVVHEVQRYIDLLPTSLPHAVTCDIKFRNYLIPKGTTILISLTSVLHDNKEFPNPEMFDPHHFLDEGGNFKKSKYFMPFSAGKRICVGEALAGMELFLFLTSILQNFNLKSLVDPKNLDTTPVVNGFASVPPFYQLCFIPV
Sequence of CYP3A4 (P08684 whole entry): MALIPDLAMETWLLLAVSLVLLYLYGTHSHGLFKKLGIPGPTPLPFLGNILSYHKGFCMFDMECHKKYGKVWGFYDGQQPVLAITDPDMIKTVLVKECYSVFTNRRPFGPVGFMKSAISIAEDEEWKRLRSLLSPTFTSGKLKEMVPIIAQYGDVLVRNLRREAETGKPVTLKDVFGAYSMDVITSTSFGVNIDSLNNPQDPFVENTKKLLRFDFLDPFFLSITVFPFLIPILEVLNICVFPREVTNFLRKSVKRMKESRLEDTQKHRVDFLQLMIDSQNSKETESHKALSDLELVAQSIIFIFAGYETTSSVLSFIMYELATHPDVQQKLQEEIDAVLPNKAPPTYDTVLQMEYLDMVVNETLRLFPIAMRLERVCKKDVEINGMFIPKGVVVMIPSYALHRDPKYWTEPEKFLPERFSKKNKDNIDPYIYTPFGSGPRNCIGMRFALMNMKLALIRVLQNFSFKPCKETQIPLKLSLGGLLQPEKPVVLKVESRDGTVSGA
Sequence of CYP2D6 (P10635 whole entry): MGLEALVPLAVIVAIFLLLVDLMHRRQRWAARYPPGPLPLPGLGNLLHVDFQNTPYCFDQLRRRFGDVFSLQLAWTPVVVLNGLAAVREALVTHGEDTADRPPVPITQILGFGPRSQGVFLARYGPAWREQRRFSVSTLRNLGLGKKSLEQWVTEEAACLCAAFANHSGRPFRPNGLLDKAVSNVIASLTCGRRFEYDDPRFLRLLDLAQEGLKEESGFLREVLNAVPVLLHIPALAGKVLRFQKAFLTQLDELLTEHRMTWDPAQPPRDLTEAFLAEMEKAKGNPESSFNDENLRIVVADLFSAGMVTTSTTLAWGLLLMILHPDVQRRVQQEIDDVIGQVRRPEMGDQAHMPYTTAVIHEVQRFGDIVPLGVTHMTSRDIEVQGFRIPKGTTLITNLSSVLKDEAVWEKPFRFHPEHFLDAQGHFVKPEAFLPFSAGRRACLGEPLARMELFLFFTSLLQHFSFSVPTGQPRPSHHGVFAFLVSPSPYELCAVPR

SMILES: COc1cc(Nc2c(C#N)cnc3cc(OCCCN4CCN(C)CC4)ccc23)c(Cl)cc1Cl
- IC50 [1]: 710 nM

SMILES: COc1cc(Nc2c(C#N)cnc3cc(NCCCN4CCN(C)CC4)c(OC)cc23)c(Cl)cc1Cl
- inhibition at 3 µM (CYP2C9): < 34%
- concentration at 24 h [2]: 100 ng/mL
- concentration at 8 h [3]: 520 ng/mL
- concentration at 4 h [4]: 790 ng/mL
- inhibition in vivo at 150 mg/kg (HT-29): 63%
- inhibition at 3 µM (CYP3A4): < 34%
- Papp [5]: 10.7 ×10⁻⁶ cm/s
- IC50 [1]: 360 nM
- solubility [6]: 32 µg/mL (≈ 60.4 µM)
- inhibition at 3 µM (CYP2D6): < 34%
- remaining at 5 h [7]: > 70%

SMILES: COCCOc1cc2ncc(C#N)c(Nc3cc(OC)c(Cl)cc3Cl)c2cc1OC
- IC50 [1]: 190 nM

SMILES: CCOc1cc2c(Nc3cc(OC)c(Cl)cc3Cl)c(C#N)cnc2cc1OCCOC
- IC50 [1]: 180 nM

SMILES: CCOc1cc2c(Nc3cc(OC)c(Cl)cc3Cl)c(C#N)cnc2cc1OCCCN1CCN(C)CC1
- IC50 [1]: 85 nM

SMILES: COc1cc(Nc2c(C#N)cnc3cc(N(C)CCCN(C)C)c(OC)cc23)c(Cl)cc1Cl
- IC50 [1]: 2700 nM

SMILES: COc1cc(Nc2c(C#N)cnc3cc(OCCCN4CCN(C)CC4)c(OC)cc23)c(Cl)cc1Cl [BOSUTINIB]
- concentration at 24 h [2]: 47 ng/mL
- concentration at 4 h [4]: 1060 ng/mL
- inhibition in vivo at 150 mg/kg (HT-29): 50%
- IC50 [1]: 100 nM

SMILES: COc1cc(Nc2c(C#N)cnc3cc(NCCCN4CCOCC4)c(OC)cc23)c(Cl)cc1Cl
- IC50 [1]: 390 nM

SMILES: COCCOc1ccc2c(Nc3cc(OC)c(Cl)cc3Cl)c(C#N)cnc2c1
- IC50 [1]: 1600 nM

SMILES: COc1cc(Nc2c(C#N)cnc3cc(NCCCN(C)C)c(OC)cc23)c(Cl)cc1Cl
- inhibition at 3 µM (CYP2C9): < 34%
- concentration at 24 h [2]: 80 ng/mL
- concentration at 8 h [3]: 410 ng/mL
- concentration at 4 h [4]: 610 ng/mL
- inhibition in vivo at 150 mg/kg (HT-29): 75%
- inhibition at 3 µM (CYP3A4): < 34%
- Papp [5]: 7.3 ×10⁻⁶ cm/s
- IC50 [1]: 300 nM
- solubility [6]: > 100 µg/mL
- inhibition at 3 µM (CYP2D6): < 34%
- remaining at 5 h [7]: > 70%

SMILES: COCCNc1cc2ncc(C#N)c(Nc3cc(OC)c(Cl)cc3Cl)c2cc1OC
- IC50 [1]: 1500 nM

SMILES: COCCOc1ccc2c(Nc3ccc(Cl)cc3Cl)c(C#N)cnc2c1
- IC50 [1]: > 10000 nM
